The source of these data is PMC8284454, “In Vitro Profiling of Antitubercular Compounds by Rapid, Efficient, and Nondestructive Assays Using Autoluminescent Mycobacterium tuberculosis” (Antimicrobial Agents and Chemotherapy, 2021).

In data set [1] the test system is J774 infected with M. tuberculosis strain Erdman. The conditions noted are these: read-out: Literature reported EC90; cited from earlier work.
For data set [2], the system named is M. tuberculosis H37Rv_LuxABCDE. The data set can be described thus: microplate alamarBlue assay (MABA) MIC. Particulars: 90% reduction of fluorescence, 7 days, 7H12 medium; SD from three independent experiments.
The subject of data set [3] is M. tuberculosis H37Rv_LuxABCDE. The data set can be described thus: luminescence-based MBC assay (LMBCA) / time-kill. The data set is classed as cell-based, Mycobacterium tuberculosis. Particulars: for change of MBC values over time: over 21 days, luminescence time-kill; for time and/or concentration dependence of bactericidal activity: time-kill curves up to day 21; for MBC: Mycobacterium tuberculosis.

Data set [4] relates to J774-internalized M. tuberculosis (H37Rv). The data set can be described thus: intracellular activity by luminescence (EC90). The data set is classed as cell-based, Mycobacterium tuberculosis. Particulars: for EC90: RLU; for onset of growth inhibition of internalized M. tuberculosis: early = EC90 obtainable by day 3, late = EC90 obtainable by day 5 or later.
For data set [5], the system named is M. tuberculosis H37Rv_LuxABCDE. The data set can be described thus: postantibiotic effect by luminescence (RLU). The data set is classed as cell-based, Mycobacterium tuberculosis. The conditions noted are these: 1.5 log10 RLU increase, 1:10,000-fold dilution; for PAE 1× MIC RLU: 3 h exposure at 1× MIC; for PAE 10× MIC RLU: 3 h exposure at 10× MIC; for PAE 100× MIC RLU: 3 h exposure at 100× MIC.

In data set [6] the test system is M. tuberculosis H37Rv_LuxABCDE. The data set can be described thus: luminescence-based MIC assay (LMICA). The conditions noted are these: 90% reduction of luminescence, 7 days, 7H12 medium; SD from three independent experiments.
Data set [7] deals with M. tuberculosis H37Rv_LuxABCDE. The data set can be described thus: microbe, parasite or virus in culture. The format is cell-based, Mycobacterium tuberculosis. The conditions noted are these: day 7, SD from three independent experiments; for MBC: Mycobacterium tuberculosis, read-out: MBC (±SD) via CFU.
Data set [8] concerns M. tuberculosis H37Rv_LuxABCDE. The data set is classed as cell-based, Mycobacterium tuberculosis. Particulars: 1:10,000-fold dilution; for PAE 1× MIC CFU/ml: 3 h exposure at 1× MIC; for PAE 10× MIC CFU/ml: 3 h exposure at 10× MIC; for PAE 100× MIC CFU/ml: 3 h exposure at 100× MIC.
For data set [9], the system named is M. tuberculosis H37Rv_LuxABCDE. The data set can be described thus: MIC used to set PAE concentrations (Table 4). The format is cell-based. Particulars: Mycobacterium tuberculosis. From the text:
TABLE 4 Comparison of post antibiotic effect values (h) obtained via CFU and RLU measurement for two established TB drugs (rifampin and isoniazid) and two emerging TB lead candidates (ecumicin and rufomycin)^a | column: MIC (μM)

The test system of data set [10] is macrophage-internalized M. tuberculosis. The conditions noted are these: EC90, high-content imaging on day 5; read-out: Literature reported EC90; cited from earlier work.
Setting [11] is: 168 h, day 7, 99% reduction in RLU vs T0, SD from three independent experiments, read-out: MBC (±SD) via luminescence.
The mark [12] stands for this setting: 336 h, day 14, 99% reduction in RLU vs T0, read-out: MBC (±SD) by luminescence on day 14.
Where [13] appears, read: 504 h, day 21, 99% reduction in RLU vs T0, read-out: MBC (±SD) by luminescence on day 21.
The mark [14] stands for this setting: Mycobacterium tuberculosis, H37RV, 72 h, EC90, day 3, J774 macrophages, read-out: Intracellular activity, EC90 (±SD) Day 3.
[15] abbreviates: Mycobacterium tuberculosis, H37RV, 120 h, EC90, day 5, J774 macrophages, read-out: Intracellular activity, EC90 (±SD) Day 5.
Setting [16] is: Mycobacterium tuberculosis, H37RV, 168 h, EC90, day 7, J774 macrophages, read-out: Intracellular activity, EC90 (±SD) Day 7.

Converted amounts (≈) assume the structure as drawn. “Also recorded” adds a separate entry of the source. Where two headings read alike, the source gives them in different places. Marks after values point to notes of the source that are not given here. *1 amine or outer side, *2 acyl side, *3 side chain or, on linkers, in order; H or OH if unused. Where a SMILES comes first, the peptide text is derived from it. Bridges are numbered along the chain shown (N, C = ends). [ ]: non-standard residue; d: D form. The star is where a group is joined. Phe(3R-OH) = O=C([C@@H](N[*:1])[C@H](O[*:3])c1ccccc1)[*:2]; NMeTrp(4-OMe) = CN[C@@H](Cc1c[nH]c2cccc(OC)c12)C(=O)O; NMeaIle = CC[C@@H](C)[C@H](NC)C(=O)O; NMe2Val = CC(C)[C@@H](C(=O)*)N(C)C; NMeT = CN[C@H](C(=O)O)[C@@H](C)O; NMeL = CN[C@@H](CC(C)C)C(=O)O; NMeV = CN[C@H](C(=O)O)C(C)C

In the case of `CC[C@@H](C)[C@@H](C(=O)N[C@@H]1C(=O)N(C)[C@@H]([C@@H](C)O)C(=O)N[C@@H](C(C)C)C(=O)N(C)[C@@H](CC(C)C)C(=O)N[C@@H](C(C)C)C(=O)N(C)[C@@H](C(C)C)C(=O)N(C)[C@@H](Cc2c[nH]c3cccc(OC)c23)C(=O)N[C@@H](C(C)C)C(=O)N[C@@H]([C@H](O)c2ccccc2)C(=O)N[C@@H](C(C)C)C(=O)O[C@@H]1C)N(C)C(=O)[C@@H](NC(=O)[C@H](C(C)C)N(C)C)C(C)C` [Ecumicin] (NMe2Val-V[NMeaIle]T[NMeT]V[NMeL]V[NMeV][NMeTrp(4-OMe)]V[Phe(3R-OH)]V; ester 3-C), the EC90 in [1] was about 120 nM. The “MIC (±SD) MABA” value in data set [2] is reported as 0.081 (0.02) μM. Further, in data set [3], the “bactericidal or bacteriostatic activity” value is given as “strong bactericidal activity; also recorded: classical bactericidal dose response”, the “change of MBC values over time” value is “decreased” and the “time and/or concentration dependence of bactericidal activity” value (“time and/or concentration dependence” below) is “mainly time dependent”. In data set [3] (day 7, 99% reduction in RLU vs T0, SD from three independent experiments), the “MBC (±SD) via luminescence” value is listed as 0.22 (0.1) μM. For the same molecule, the “MBC (±SD) by luminescence on day 14” value in data set [3] (day 14, 99% reduction in RLU vs T0) was 0.20 (0.09) µM. Moreover, in data set [3] (day 21, 99% reduction in RLU vs T0), the “MBC (±SD) by luminescence on day 21” value is 0.12 (0.04) µM. Moreover, the EC90 in data set [4] (EC90, day 3, J774 macrophages, read-out: Intracellular activity, EC90 (±SD) Day 3) worked out at 740 nM. Further, in [4] (EC90, day 5, J774 macrophages, read-out: Intracellular activity, EC90 (±SD) Day 5), the EC90 came to 570 nM. In data set [4] (EC90, day 7, J774 macrophages, read-out: Intracellular activity, EC90 (±SD) Day 7), the concentration for an effect of 90% (EC90) worked out at 280 nM. The “onset of growth inhibition of internalized M. tuberculosis” value in data set [4] is on record as “early growth inhibition”. The “Toxicity against infected J774, percent inhibition at the highest tested concentration” value in the data set with infected J774 (day 7, 6.3 μM) is 6.3 (11)* percent. Also, in data set [5], the “PAE 1× MIC RLU” value is 0 h, the “PAE 10× MIC RLU” value was found to be 12 h and the “PAE 100× MIC RLU” value amounted to 96 h. The “MIC (±SD) LMICA” value in data set [6] was 0.074 (0.002) μM. Besides, in data set [7], the “MBC (±SD) via CFU” value is 0.10 (±0.03) μM. Also, in data set [8], the “PAE 1× MIC CFU/ml” value stood at 0 h, the “PAE 10× MIC CFU/ml” value was found to be 10 h and the “PAE 100× MIC CFU/ml” value was 80 h.

With `CO[C@H]1/C=C/O[C@@]2(C)Oc3c(C)c(O)c4c(O)c(c(/C=N/N5CCN(C)CC5)c(O)c4c3C2=O)NC(=O)/C(C)=C\C=C\[C@H](C)[C@H](O)[C@@H](C)[C@@H](O)[C@@H](C)[C@H](OC(C)=O)[C@@H]1C` [Rifampin], the “MIC (±SD) MABA” value in data set [2] was 0.060 (0.01) μM. In data set [9], this molecule yielded an MIC of 0.04 µM (≈ 0.0329 µg/mL). Moreover, the MBC is 0.6 µM (≈ 0.494 µg/mL) in data set [3] (setting [11]), 0.48 µM (≈ 0.395 µg/mL) in [3] (setting [12]), 0.4 µM (≈ 0.329 µg/mL) in data set [3] (setting [13]) and 0.4 µM (≈ 0.329 µg/mL) in [7]. Besides, in data set [3], the “change of MBC values over time” value is listed as “decreased”. In addition, in data set [3], the “time and/or concentration dependence” value is “both time and concentration dependent”. For the same molecule, the EC90 in data set [4] (setting [14]) was over 2000 nM; in [4] (setting [15]) it was 1550 nM; in data set [4] (setting [16]), 640 nM; in [10] it was 2900 nM. Moreover, the inhibition at 2 µM in data set [4] (Mycobacterium tuberculosis, H37RV, 72 h, day 3, 2 μM, read-out: percent inhibition at the highest tested concentration, intracellular activity Day 3) worked out at 60%. For the same molecule, in data set [4], the “onset of growth inhibition of internalized M. tuberculosis” value is recorded as “late growth inhibition”. Moreover, in the data set on infected J774 (day 7, 2 μM), the “Toxicity against infected J774, percent inhibition at the highest tested concentration” value is 2 (0)* percent. Further, the “PAE 10× MIC RLU” value in [5] stood at 26 h. The “PAE 100× MIC RLU” value in data set [5] worked out at 92 h. The “MIC (±SD) LMICA” value in data set [6] is reported as 0.041 (0.005) μM. Also, the “PAE 10× MIC CFU/ml” value in [8] is listed as 30 h. The “PAE 100× MIC CFU/ml” value in [8] is listed as 58 h.

Consider `NNC(=O)c1ccncc1` [Isoniazid], for which, in data set [2], the “MIC (±SD) MABA” value is recorded as 0.30 (0.05) μM. Inhibition of growth in data set [9] (MIC) required 0.3 µM (≈ 0.0411 µg/mL). In addition, the MBC was determined as 0.57 µM (≈ 0.0782 µg/mL) in [3] (setting [11]), 2.56 µM (≈ 0.351 µg/mL) in data set [3] (setting [12]), 3.23 µM (≈ 0.443 µg/mL) in data set [3] (setting [13]) and 0.46 µM (≈ 0.0631 µg/mL) in [7]. Besides, the “change of MBC values over time” value in data set [3] is recorded as “increase”. Further, the “time and/or concentration dependence” value in data set [3] is on record as “mainly time dependent”. The concentration for an effect of 90% (EC90) in data set [4] (setting [14]) was over 8000 nM; in [4] (setting [15]) it was 1050 nM; in [4] (setting [16]), 520 nM; in [10] it was 1200 nM. For the same molecule, in [4] (Mycobacterium tuberculosis, H37RV, 72 h, day 3, 8 μM, read-out: percent inhibition at the highest tested concentration, intracellular activity Day 3), the inhibition at 8 µM turned out to be 77%. For the same molecule, the “onset of growth inhibition of internalized M. tuberculosis” value in data set [4] was “late growth inhibition”. Also, the “Toxicity against infected J774, percent inhibition at the highest tested concentration” value in the data set with infected J774 (day 7, 8 μM) is on record as 8 (0)* percent. The “PAE 1× MIC RLU” value in data set [5] was 0 h. Moreover, the “PAE 10× MIC RLU” value in data set [5] worked out at 0 h. Besides, the “PAE 100× MIC RLU” value in data set [5] is reported as 0 h; in data set [5] (listed as isoniazid), “no observable PAE”. The “MIC (±SD) LMICA” value in [6] is reported as 0.24 (0.08) μM. In addition, the “PAE 1× MIC CFU/ml” value in data set [8] is on record as 0 h. Moreover, the “PAE 10× MIC CFU/ml” value in data set [8] is 0 h. Also, the entries for the “PAE 100× MIC CFU/ml” value in [8] and in data set [8] (listed as isoniazid) were 0 h and “no observable PAE”, respectively.
